The target of test [1] is T1, CDK5 (Homo sapiens, UniProt Q00535).
T1 construct: purchased DiscoverX (KINOMEscan)
Put plainly: KINOMEscan competitive binding. In a few lines:
(§1)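 First, kinases were produced as T7 bacteriophage fusion proteins. Then compounds were added to compete them off probe ligands immobilized on a solid support at the ATP site. Finally, bound kinase was measured and converted to percentage inhibition.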

For test [2], the target named is T2, KDR (VEGFR2) (Homo sapiens, UniProt P35968).
T2 construct: purchased DiscoverX (KINOMEscan)
Put plainly: KINOMEscan competitive binding. The following applies: for inhibition at 10 µM: KINOMEscan, n=1, read-out: Percent inhibition, VEGFR2. An outline of the steps:
as §1

The target of test [3] is T3, KIT (Homo sapiens, UniProt P10721).
T3 construct: purchased DiscoverX (KINOMEscan)
Put plainly: KINOMEscan competitive binding. An outline of the steps:
as §1

The target in test [4] is T4, FLT3 (Homo sapiens, UniProt P36888).
T4 construct: purchased DiscoverX (KINOMEscan)
T4 sequence (P36888 27-993): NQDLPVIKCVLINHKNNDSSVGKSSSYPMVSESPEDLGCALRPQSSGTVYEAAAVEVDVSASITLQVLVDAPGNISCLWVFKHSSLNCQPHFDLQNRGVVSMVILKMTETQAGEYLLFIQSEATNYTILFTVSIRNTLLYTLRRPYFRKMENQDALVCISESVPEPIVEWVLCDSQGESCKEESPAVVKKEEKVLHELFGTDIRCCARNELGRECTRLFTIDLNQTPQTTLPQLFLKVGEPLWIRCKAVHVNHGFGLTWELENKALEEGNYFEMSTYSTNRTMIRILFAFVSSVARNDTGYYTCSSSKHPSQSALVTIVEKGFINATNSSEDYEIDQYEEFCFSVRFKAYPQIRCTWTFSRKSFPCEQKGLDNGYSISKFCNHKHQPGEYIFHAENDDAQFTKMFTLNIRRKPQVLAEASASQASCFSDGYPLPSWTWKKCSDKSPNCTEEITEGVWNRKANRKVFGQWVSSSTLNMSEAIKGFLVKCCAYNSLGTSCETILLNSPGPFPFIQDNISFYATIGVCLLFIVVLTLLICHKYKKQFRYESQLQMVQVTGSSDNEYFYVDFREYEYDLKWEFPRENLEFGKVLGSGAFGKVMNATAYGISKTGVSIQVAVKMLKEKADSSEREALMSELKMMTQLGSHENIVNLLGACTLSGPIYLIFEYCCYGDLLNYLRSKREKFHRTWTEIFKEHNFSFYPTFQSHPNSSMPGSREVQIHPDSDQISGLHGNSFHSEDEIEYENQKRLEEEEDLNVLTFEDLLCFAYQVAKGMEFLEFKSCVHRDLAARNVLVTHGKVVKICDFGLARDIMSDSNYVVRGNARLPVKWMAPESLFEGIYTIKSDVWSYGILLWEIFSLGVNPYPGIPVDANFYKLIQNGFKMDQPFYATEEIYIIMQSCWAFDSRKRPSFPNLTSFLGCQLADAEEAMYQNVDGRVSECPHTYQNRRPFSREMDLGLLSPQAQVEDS
Put plainly: KINOMEscan competitive binding. An outline of the steps:
as §1

In test [5] the target is T5, PDGFRβ (Homo sapiens, UniProt P09619).
T5 construct: purchased DiscoverX (KINOMEscan)
In words: KINOMEscan competitive binding. In a few lines:
as §1

The target of test [6] is T6, CSNK2A1 (Homo sapiens, UniProt P68400).
T6 construct: purchased DiscoverX (KINOMEscan)
In words: KINOMEscan competitive binding. An outline of the steps:
as §1

Test [7] deals with T7, EGFR (Homo sapiens, UniProt P00533).
T7 construct: purchased DiscoverX (KINOMEscan)
In words: KINOMEscan competitive binding. In a few lines: as §1

Test [8] concerns the target T8, LYN (Homo sapiens, UniProt P07948).
T8 construct: purchased DiscoverX (KINOMEscan)
Put plainly: KINOMEscan competitive binding. An outline of the steps: as §1

The target of test [9] is T9, CDK2 (Homo sapiens, UniProt P24941).
T9 construct: purchased DiscoverX (KINOMEscan)
In words: KINOMEscan competitive binding. An outline of the steps:
as §1

Test [10] deals with T10, panel of 203 kinases (Homo sapiens, UniProt Q13554).
T10 construct: purchased DiscoverX (KINOMEscan)
Put plainly: KINOMEscan competitive binding, whole panel. The following applies: 10 µM, n=1; kinase CAMK2B; read-out: Percent inhibition CAMK2B. An excerpt: (§2) The kinases were expressed as fusions to T7 bacteriophage. This is a sensitive, competitive binding assay where test compounds were used to displace immobilized ATP-site binding probe ligands from kinases of interest. The amount of kinase that remained bound to the immobilized probe ligands on the solid support was quantified. Percentage inhibition data were was plotted on kinome trees using the web-based tool KinMap (http://www.kinhub.org/kinmap) ([60]).

The target in test [11] is T11, panel of 203 kinases (Homo sapiens, UniProt P53778).
T11 construct: purchased DiscoverX (KINOMEscan)
T11 sequence (P53778 1-367): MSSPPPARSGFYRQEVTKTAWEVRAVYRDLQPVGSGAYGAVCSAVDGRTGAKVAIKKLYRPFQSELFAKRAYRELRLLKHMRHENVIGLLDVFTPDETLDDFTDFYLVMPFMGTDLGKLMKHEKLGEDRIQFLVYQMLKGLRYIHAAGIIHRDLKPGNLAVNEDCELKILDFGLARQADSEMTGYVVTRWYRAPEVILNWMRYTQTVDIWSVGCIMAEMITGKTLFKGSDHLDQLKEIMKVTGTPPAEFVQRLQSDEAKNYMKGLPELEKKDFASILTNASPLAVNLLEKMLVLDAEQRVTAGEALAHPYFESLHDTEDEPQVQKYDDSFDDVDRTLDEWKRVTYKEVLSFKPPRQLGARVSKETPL
In words: KINOMEscan competitive binding, whole panel. The following applies: 10 µM, n=1; kinase p38-gamma; read-out: Percent inhibition p38-gamma.
From the text: as §2

Test [12] deals with T12, panel of 203 kinases (Homo sapiens, UniProt Q9UIK4).
T12 construct: purchased DiscoverX (KINOMEscan)
Put plainly: KINOMEscan competitive binding, whole panel. The following applies: 10 µM, n=1; kinase DAPK2; read-out: Percent inhibition DAPK2.
From the text: as §2

For test [13], the target named is T13, panel of 203 kinases (Homo sapiens, UniProt P53667).
T13 construct: purchased DiscoverX (KINOMEscan)
In words: KINOMEscan competitive binding, whole panel. The following applies: 10 µM, n=1; kinase LIMK1; read-out: Percent inhibition LIMK1.
From the text: as §2

Test [14] concerns the target T14, panel of 203 kinases (Homo sapiens, UniProt P19784).
T14 construct: purchased DiscoverX (KINOMEscan)
Put plainly: KINOMEscan competitive binding, whole panel. The following applies: 10 µM, n=1; kinase CSNK2A2; read-out: Percent inhibition CSNK2A2.
From the text: as §2

Test [15] addresses T15, panel of 203 kinases (Homo sapiens, UniProt Q9Y4K4).
T15 construct: purchased DiscoverX (KINOMEscan)
In words: KINOMEscan competitive binding, whole panel. The following applies: 10 µM, n=1; kinase MAP4K5; read-out: Percent inhibition MAP4K5.
From the text: as §2

The target in test [16] is T16, TESK1 (Homo sapiens, UniProt Q15569).
T16 construct: purchased DiscoverX (KINOMEscan)
In words: KINOMEscan competitive binding. The following applies: n=1, read-out: Percent inhibition, TESK1.

Setting [17] is: 10 µM, n=1, kinase CDK5, read-out: Percent inhibition CDK5.
[18] abbreviates: 10 µM, n=1, kinase KIT, read-out: Percent inhibition KIT.
Where [19] appears, read: 10 µM, n=1, kinase FLT3, read-out: Percent inhibition FLT3.
The mark [20] stands for this setting: KINOMEscan, 10 µM, n=1, read-out: Percent inhibition, PDGFRB.
Setting [21] is: 10 µM, n=1, kinase CSNK2A1, read-out: Percent inhibition CSNK2A1.
[22] abbreviates: 10 µM, n=1, kinase EGFR, read-out: Percent inhibition EGFR.
Setting [23] is: 10 µM, n=1, kinase LYN, read-out: Percent inhibition LYN.
[24] abbreviates: 10 µM, n=1, kinase CDK2, read-out: Percent inhibition CDK2.
The mark [25] stands for this setting: 10 μM, n = 1, read-out: percent inhibition FLT3.

Like-named read-outs stand apart in the source and are kept apart here.

Take `Cc1ccc(O)cc1Nc1ccnc(Nc2cccc(C(N)=O)c2)n1` [Compound 3]: the inhibition at 10 µM in test [1] (setting [17]) turned out to be 0%; in test [2], 81.5%; in [3] (setting [18]), 100%; in test [4] (setting [19]), 89%; in [5] (setting [20]), 100%; in [6] (setting [21]) it was 0%. Further, the inhibition at 10 µM in test [7] (setting [22]) was 99%; in test [8] (setting [23]) it was 99.9%; in test [9] (setting [24]), 0%; in test [10], 0%; in [11], 0%; in test [12] it was 0%. The inhibition at 10 µM was 86.4% in test [13], 0% in [14], 94.6% in test [15] and 0% in [16].

Consider `Clc1ccc(Nc2ncc(-c3ccccc3)s2)cc1` [Compound 10], for which the inhibition at 10 µM in test [1] (setting [17]) was 0%; in [2] it was 0%; in [3] (10 μM, n = 1, read-out: percent inhibition KIT), above 99%; in [3] (setting [18]), 99%; in test [4] (setting [25]), above 90%; in [4] (setting [19]), 97.1%. Also, the inhibition at 10 µM was above 99% in test [5] (10 μM, n = 1, read-out: percent inhibition PDGFRβ); 99.9% in [5] (setting [20]); 0% in [6] (setting [21]); 0% in test [7] (setting [22]); above 99% in test [8] (10 μM, n = 1, read-out: percent inhibition LYN); 100% in test [8] (setting [23]). Further, the inhibition at 10 µM in test [9] (setting [24]), in [10], in test [11], in test [12], in test [13] and in [14] was 0% in each case. Further, the inhibition at 10 µM in test [15] and in test [16] was 0% in each case. Further, the “inhibition of KDR (VEGFR2), in words” value in [2] (kinome profiling, 10 μM) is “relatively weak inhibition”.

`c1ccc(COc2cccc(-c3ccnc4[nH]ccc34)c2)cc1` [Compound 9]: the inhibition at 10 µM in test [1] (setting [17]) is 0%; in test [2], 0%; in test [3] (setting [18]), 0%; in [4] (setting [25]), at least 90%; in test [4] (setting [19]), 91.1%; in [5] (setting [20]) it was 0%. The inhibition at 10 µM in [6] (10 μM, n = 1, read-out: percent inhibition CSNK2A1) was at least 99%; in [6] (setting [21]), 100%; in test [7] (setting [22]), 0%; in [8] (setting [23]), 0%; in test [9] (setting [24]), 0%; in test [10] it was 0%. In addition, the inhibition at 10 µM in test [11], in test [12], in test [13], in test [14], in test [15] and in [16] was 0% in each case.

With `Fc1cccc(COc2ccc(Nc3ncnc4c3CN(CCN3CCOCC3)CC4)cc2Cl)c1` [Compound 6], the inhibition at 10 µM in [1] (setting [17]), in test [2], in [3] (setting [18]), in test [4] (setting [19]), in [5] (setting [20]) and in [6] (setting [21]) was 0% in each case. For the same compound, the inhibition at 10 µM in test [7] (10 μM, n = 1, read-out: percent inhibition EGFR) was above 99%; in test [7] (setting [22]), 99.9%; in [8] (setting [23]), 0%; in [9] (setting [24]), 0%; in [10], 0%; in test [11], 0%. Besides, the inhibition at 10 µM in [12], in [13], in [14], in test [15] and in test [16] was 0% throughout.

As for `C[C@@H](Oc1cc(-c2cnc3ccccn23)sc1C(N)=O)c1ccccc1Cl` [Compound 8], the inhibition at 10 µM in test [1] (setting [17]) is 0%; in test [2], 0%; in [3] (setting [18]), 0%; in [4] (setting [19]), 98.6%; in test [5] (setting [20]) it was 0%; in [6] (setting [21]) it was 94.6%. Besides, the inhibition at 10 µM in [7] (setting [22]) was found to be 0%; in test [8] (setting [23]) it was 0%; in test [9] (setting [24]), 0%; in test [10], 0%; in test [11], 0%; in test [12], 88.3%. The inhibition at 10 µM was 0% in test [13], 95.2% in test [14], 82.7% in test [15] and 0% in test [16].

For the compound `CN1CCN(c2ccc(Nc3nccc(-c4cnn5ncccc45)n3)cc2C#N)CC1` [Compound 1], the inhibition at 10 µM in test [1] (10 μM, n = 1, read-out: percent inhibition CDK5) was above 99%; in test [1] (setting [17]), 99.5%; in test [2], 100%; in [3] (setting [18]) it was 100%; in test [4] (setting [19]), 100%; in test [5] (setting [20]), 100%. Moreover, the inhibition at 10 µM in [6] (setting [21]) is 100%; in [7] (setting [22]), 0%; in test [8] (setting [23]) it was 0%; in test [9] (10 μM, n = 1, read-out: percent inhibition CDK2) it was above 99%; in [9] (setting [24]) it was 99.5%; in test [10], 96.5%. Also, the inhibition at 10 µM worked out at 0% in [11]; 92.2% in test [12]; 85.9% in test [13]; 96.3% in [14]; 93% in [15]; 0% in [16].

The record behind these values is paper PMC9927415, “Tyrosine Kinase Inhibitors Display Potent Activity against Cryptosporidium parvum” (Microbiology Spectrum, 2022).
